From patent US8012956B2, “Tropane compounds” (Exelixis, Inc., priority 2007, dated 2011)

Target: HSP90 (Homo sapiens, UniProt P07900)
Test: HSP90 inhibition (HSP90 IC50)
Format: biochemical

IC50 [µM]	SMILES
0.5 to 0.999	COc1cccc(C(=O)NC2CC3CCC(C2)N3c2ccc(C(=O)N[C@@H](C)C(N)=O)cn2)c1C (stereo partly drawn) [N-[(1S)-2-amino-1-methyl-2-oxoethyl]-6-[3-endo-({[2-methyl-3-(methyloxy)phenyl]carbonyl}amino)-8-azabicyclo[3.2.1]oct-8-yl]pyridine-3-carboxamide]
1 to 2	COc1cccc(C(=O)NC2CC3CCC(C2)N3c2ccc(C(=O)N[C@@H](C)CO)cn2)c1C (stereo partly drawn) [N-[(1S)-2-hydroxy-1-methylethyl]-6-[3-endo-({[2-methyl-3-(methyloxy)phenyl]carbonyl}amino)-8-azabicyclo[3.2.1]oct-8-yl]pyridine-3-carboxamide]
2 to 10	COc1cccc(C(=O)NC2CC3CCC(C2)N3c2ccc(C(=O)N[C@H]3CCCC[C@@H]3O)cn2)c1C (stereo partly drawn) [N-[(1S,2S)-2-hydroxycyclohexyl]-6-[3-endo-({[2-methyl-3-(methyloxy)phenyl]carbonyl}amino)-8-azabicyclo[3.2.1]oct-8-yl]pyridlne-3-carboxamide]
2 to 10	COc1cccc(C(=O)NC2CC3CCC(C2)N3c2ccc(C(=O)NCC3COC(C)(C)O3)cn2)c1C (stereo not drawn) [N-[(2,2-dimethyl-1,3-dioxolan-4-yl)methyl]-6-[3-endo-({[2-methyl-3-(methyloxy)phenyl]carbonyl}amino)-8-azabicyclo[3.2.1]oct-8-yl]pyridine-3-carboxamide]
< 0.5	COc1cccc(C(=O)N[C@H]2C[C@H]3CC[C@@H](C2)N3c2ccc(C(=O)NCc3ccc(F)cc3F)cn2)c1C [N-[(2,4-difluorophenyl)methyl]-6-[3-endo-({[2-methyl-3-(methyloxy)phenyl]carbonyl}amino)-8-azabicyclo[3.2.1]oct-8-yl]pyridine-3-carboxamide]
0.5 to 0.999	COc1cccc(C(=O)N[C@H]2C[C@H]3CC[C@@H](C2)N3c2ccc(C(=O)NCc3cc(F)ccc3F)cn2)c1C [N-[(2,5-difluorophenyl)methyl]-6-[3-endo-({[2-methyl-3-(methyloxy)phenyl]carbonyl}amino)-8-azabicyclo[3.2.1]oct-8-yl]pyridine-3-carboxamide]
< 0.5	COc1cccc(C(=O)N[C@H]2C[C@H]3CC[C@@H](C2)N3c2ccc(C(=O)NCc3c(F)cccc3F)cn2)c1C [N-[(2,6-difluorophenyl)methyl]-6-[3-endo-({[2-methyl-3-(methyloxy)phenyl]carbonyl}amino)-8-azabicyclo[3.2.1]oct-8-yl]pyridine-3-carboxamide]
< 0.5	COc1cccc(C(=O)N[C@H]2C[C@H]3CC[C@@H](C2)N3c2ccc(C(=O)NCc3c(F)ccc(F)c3Cl)cn2)c1C [N-[(2-chloro-3,6-difluorophenyl)methyl]-6-[3-endo-({[2-methyl-3-(methyloxy)phenyl]carbonyl}amino)-8-azabicyclo[3.2.1]oct-8-yl]pyridine-3-carboxamide]
0.5 to 0.999	COc1cccc(C(=O)N[C@H]2C[C@H]3CC[C@@H](C2)N3c2ccc(C(=O)NCc3c(F)ccc(C)c3Cl)cn2)c1C [N-[(2-chloro-6-fluoro-3-methylphenyl)methyl]-6-[3-endo-({[2-methyl-3-(methyloxy)phenyl]carbonyl}amino)-8-azabicyclo[3.2.1]oct-8-yl]pyridine-3-carboxamide]
< 0.5	COc1cccc(C(=O)N[C@H]2C[C@H]3CC[C@@H](C2)N3c2ccc(C(=O)NCc3c(F)cccc3Cl)cn2)c1C [N-[(2-chloro-6-fluorophenyl)methyl]-6-[3-endo-({[2-methyl-3-(methyloxy)phenyl]carbonyl}amino)-8-azabicyclo[3.2.1]oct-8-yl]pyridine-3-carboxamide]
< 0.5	COc1cccc(C(=O)N[C@H]2C[C@H]3CC[C@@H](C2)N3c2ccc(C(=O)NCc3ccccc3Cl)cn2)c1C [N-[(2-chlorophenyl)methyl]-6-[3-endo-({[2-methyl-3-(methyloxy)phenyl]carbonyl}amino)-8-azabicyclo[3.2.1]oct-8-yl]pyridine-3-carboxamide]
< 0.5	COc1cccc(C(=O)N[C@H]2C[C@H]3CC[C@@H](C2)N3c2ccc(C(=O)NCc3ccccc3F)cn2)c1C [N-[(2-fluorophenyl)methyl]-6-[3-endo-({[2-methyl-3-(methyloxy)phenyl]carbonyl}amino)-8-azabicyclo[3.2.1]oct-8-yl]pyridine-3-carboxamide]
2 to 10	COc1cccc(C(=O)NC2CC3CCC(C2)N3c2ccc(C(=O)NC[C@H](C)O)cn2)c1C (stereo partly drawn) [N-[(2S)-2.hydroxypropyl]-6-[3-endo-({[2-methyl-3-(methyloxy)phenyl]carbonyl}amino)-8-azabicyclo[3.2.1]oct-8-yl]pyridine-3-carboxamide]
< 0.5	COc1cccc(C(=O)N[C@H]2C[C@H]3CC[C@@H](C2)N3c2ccc(C(=O)NCc3ccc(F)c(F)c3)cn2)c1C [N-[(3,4-difluorophenyl)methyl]-6-[3-endo-({(2-methyl-3-(methyloxy)phenyl]carbonyl}amino)-8-azablcyclo[3.2.1]oct-8-yl]pyridine-3-carboxamide]
2 to 10	COc1cccc(C(=O)N[C@H]2C[C@H]3CC[C@@H](C2)N3c2ccc(C(=O)NCc3cccc(Cl)c3)cn2)c1C [N-[(3-chlorophenyl)methyl]-6-[3-endo-({[2-methyl-3-(methyloxy)phenyl]carbonyl}amino) 8-azabicyclo[3.2.1]oct-8-yl]pyridine-3-carboxamide]
1 to 2	COc1cccc(C(=O)N[C@H]2C[C@H]3CC[C@@H](C2)N3c2ccc(C(=O)NCc3cccc(F)c3)cn2)c1C [N-[(3-fluorophenyl)methyl]-6-[3-endo-({[2-methyl-3-(methyloxy)phenyl]carbonyl}amino)-8-azabicyclo[3.2.1]oct-8-yl]pyridine-3-carboxamide]
< 0.5	CCN(CC)CCOc1cccc(CNC(=O)c2ccc(N3[C@@H]4CC[C@H]3C[C@@H](NC(=O)c3cccc(OC)c3C)C4)nc2)c1 [N-[(3-{[2-(diethylamino)ethyl]oxy}pheny)methyl]-6-[3-endo-({[2-methyl-3-(methyloxy)phenyl]carbonyl}amino)-8-azabicyclo[3.2.1]oct-8-yl]pyridine-3-carboxamide]
0.5 to 0.999	COc1cccc(C(=O)N[C@H]2C[C@H]3CC[C@@H](C2)N3c2ccc(C(=O)NCc3ccc(Br)cc3)cn2)c1C [N-[(4-bromophenyl)methyl]-6-[3-endo-({[2-methyl-3-(methyloxy)phenyl]carbonyl}amino)-8-azabicyclo[3.2.1]oct-8-yl]pyridine-3-carboxamide]
0.5 to 0.999	COc1cccc(C(=O)N[C@H]2C[C@H]3CC[C@@H](C2)N3c2ccc(C(=O)NCc3ccc(Cl)cc3)cn2)c1C [N-[(4-chlorophenyl)methyl]-6-[3-endo-({[2-methyl-3-(methyloxy)phenyl]carbonyl}amino)-8-azabicyclo[3.2.1]oct-8-yl]pyridine-3-carboxamide]
< 0.5	COc1cccc(C(=O)N[C@H]2C[C@H]3CC[C@@H](C2)N3c2ccc(C(=O)NCc3ccc(F)cc3)cn2)c1C [N-[(4-fluorophenyl)methyl]-6-[3-endo-({[2-methyl-3-(methyloxy)phenyl]carbonyl}amino)-8-azabicyclo[3.2.1]oct-8-yl]pyridine-3-carboxamide]
< 0.5	CCN(CC)CCOc1ccc(CNC(=O)c2ccc(N3[C@@H]4CC[C@H]3C[C@@H](NC(=O)c3cccc(OC)c3C)C4)nc2)cc1 [N-[(4-{[2-(diethylamino)ethyl]oxy}phenyl)methyl]-6-[3-endo-({[2-methyl-3-(methyloxy)phenyl]carbonyl}amino)-8-azabicyclo[3.2.1]oct-8-yl]pyridine-3-carboxamide]
< 0.5	COc1cccc(C(=O)N[C@H]2C[C@H]3CC[C@@H](C2)N3c2ccc(C(=O)NCc3ccc(Cl)nc3)cn2)c1C [N-[(6-chloropyridin-3-yl)methyl]-6-[3-endo-({[2-methyl-3-(methyloxy)phenyl]carbonyl}amino)-8-azabicycio[3.2.1]oct-8-yl]pyridine-3-carboxamide]
0.5 to 0.999	COc1cccc(C(=O)N[C@H]2C[C@H]3CC[C@@H](C2)N3c2ccc(C(=O)NC3CNC3)cn2)c1C [N-azetidin-3-yl-6-[3-endo-({[2-methyl-3-(methyloxy)phenyl]carbonyl}amino)-8-azabicyclo[3.2.1]oct-8-yl]pyridine-3-carboxamide]
0.5 to 0.999	CCCCNC(=O)c1ccc(N2[C@@H]3CC[C@H]2C[C@@H](NC(=O)c2cccc(OC)c2C)C3)nc1 [N-butyl-6-[3-endo-({[2-methyl-3-(methyloxy)phenyl]carbonyl}amino)-8-azabicyclo[3.2.1]oct-8-yl]pyridine-3-carboxamide]
0.5 to 0.999	COc1cccc(C(=O)N[C@H]2C[C@H]3CC[C@@H](C2)N3c2ccc(C(=O)NC3CCC3)cn2)c1C [N-cyclobutyl-6-[3-endo-({[2-methyl-3-(methyloxy)phenyl]carbonyl}amino)-8-azabicyclo[3.2.1]oct-8-yl]pyridine-3-carboxamide]
0.5 to 0.999	COc1cccc(C(=O)N[C@H]2C[C@H]3CC[C@@H](C2)N3c2ccc(C(=O)NC3CCCCC3)cn2)c1C [N-cyclohexyl-6-[3-endo-({[2-methyl-3-(methyloxy)phenyl]carbonyl}amino)-8-azabicyclo[3.2.1]oct-8-yl]pyridine-3-carboxamide]
0.5 to 0.999	COc1cccc(C(=O)N[C@H]2C[C@H]3CC[C@@H](C2)N3c2ccc(C(=O)NC3CCCC3)cn2)c1C [N-cyclopentyl-6-[3-endo-({[2-methyl-3-(methyloxy)phenyl]carbonyl}amino)-8-azabicyclo[3.2.1]oct-8-yl]pyridine-3-carboxamide]
1 to 2	COc1cccc(C(=O)N[C@H]2C[C@H]3CC[C@@H](C2)N3c2ccc(C(=O)NC3CC3)cn2)c1C [N-cyclopropyl-6-[3-endo-({[2-methyl-3-(methyloxy)phenyl]carbonyl}amino)-8-azabicyclo[3.2.1]oct-8-yl]pyridine-3-carboxamide]
0.5 to 0.999	CCNC(=O)c1ccc(N2[C@@H]3CC[C@H]2C[C@@H](NC(=O)c2cccc(OC)c2C)C3)nc1 [N-ethyl-6-[3-endo-({[2-methyl-3-(methyloxy)phenyl]carbonyl}amino)-8-azabicyclo[3.2.1]oct-8-yl]pyridine-3-carboxamide]
2 to 10	COc1cccc(C(=O)N[C@H]2C[C@H]3CC[C@@H](C2)N3c2ccc(C(=O)NO)cn2)c1C [N-hydroxy-6-[3-endo-({[2-methyl-3-(methyloxy)phenyl]carbonyl}amino)-8-azabicyclo[3.2.1]oct-8-yl]pyridine-3-carboxamide]
